Reference: patent US6562851B2, “Substituted bicyclic compounds” (Aventis Pharma Limited, priority 1999, dated 2003)

- melting point: 255.6 to 257.1 °C
SMILES: Cc1ccccc1Nc1nc2cc(CC(=O)Nc3ccc(C(CC(=O)O)NC(=O)CCCC(=O)O)cc3)ccc2o1 (stereo not shown) [Example 4, 4-(2-Carboxy-1-{4-[2-(2-o-tolylamino-benzoxazol-5-yl)-acetylamino]-phenyl}-ethylcarbamoyl)-butyric Acid]
